The values below come from patent US3965109A, “Certain aryl amino pyridines” (priority 1971, dated 1976).

Series [1] concerns Puccinia recondita (wheat). The series can be described thus: Fungicidal test against foliar disease A (foliage spray plus soil drench). The format is in vivo. The following applies: 100 ppm spray and drench; 10 days.
Series [2] relates to Phytophthora infestans (tomato). The format is in vivo. The following applies: 100 ppm spray and drench; 3 days.
Series [3] deals with Plasmopara viticola (vine). Description: Fungicidal test against foliar disease C (foliage spray plus soil drench). The settings on record: 100 ppm spray and drench; 10 days. The format is in vivo.
The test system of another series is Uncinula necator (vine). Description: Fungicidal test against foliar disease D (foliage spray plus soil drench). The following applies: 100 ppm spray and drench; 10 days. It is filed as in vivo.
The subject of series [4] is Piricularia oryzae (rice). It is filed as in vivo. The following applies: 100 ppm spray and drench; 7 days.
In series [5] the test system is Tetranychus telarius (red spider mites, adults). The series can be described thus: Pest toxicity test. It is filed as in vivo. The settings on record: 0.1% by weight; French bean; 3 days.
In a further series the test system is Aphis fabae. The series can be described thus: Pest toxicity test. It is filed as in vivo. The following applies: 0.1% by weight; broad bean; 2 days.
The next series has as its system Megoura viceae. Description: Pest toxicity test. It is filed as in vivo. The settings on record: 0.1% by weight; broad bean; 2 days.
Series [6] relates to Aedes aegypti (mosquito larvae). The series can be described thus: Pest toxicity test. It is filed as in vivo. The following applies: for Mortality grading (kill): 0.01% by weight, water, 1 day.
The subject of series [7] is Aedes aegypti (mosquito adults). Description: Pest toxicity test. The following applies: 0.01% by weight; plywood; 1 day. The format is in vivo.
For series [8], the system named is Musca domestica (houseflies). The series can be described thus: Pest toxicity test, contact test. The format is in vivo. The following applies: 0.1% by weight; milk/sugar; 2 days; flies sprayed directly.
The test system of series [9] is Pieris brassicae (cabbage white caterpillars). The series can be described thus: Pest toxicity test. The format is in vivo. The settings on record: 0.1% by weight, 2 days.
For series [10], the system named is Plutella maculipennis (diamond back moth larvae). The series can be described thus: Pest toxicity test. The format is in vivo.
Series [11] has as its system Phaedon cochleariae (mustard beetles). The series can be described thus: Pest toxicity test. The format is in vivo.
Series [12] has as its system Tetranychus telarius (red spider mites, eggs). Description: Pest toxicity test. The format is in vivo. The following applies: 0.1% by weight; French bean; 3 days.
The test system of series [13] is Agriolimax reticulatus (slugs). Description: Molluscicidal activity test. The format is in vivo, Agriolimax reticulatus (Mull). The following applies: pellet with 4% by weight; 6 days; 10°C. Here is the method: A weighed sample of the compound under test was dissolved in 0.5 c.c. of an ethanol and acetone mixture 50:50 v/v). The solution was diluted with 0.5 cc water and poured onto a calf feeding pellet in a glass Petri dish. The pellet was then air dried for 24 hours. The weight of compound used was chosen so that the dried pellet contained 4% by weight of the active ingredient. Two replicates each consisting of a plastic Petri dish containing a pellet, 2 slugs, and a moistened filter paper to maintain a high relative humidity were used in each test. The dishes were left in a cold room (10°C.) After 6 days the kill was assessed.
The slugs used were Agriolimax reticulatus (Mull), and they had been starved for 24 hours before the commencement of the tests.

The next series has as its system Lettuce. The series can be described thus: Herbicidal test, pre- and post-emergence. The format is in vivo. The following applies: 10 kg/ha; scale 0 to 3 (complete kill).
The subject of a further series is Tomato. The series can be described thus: Herbicidal test, pre- and post-emergence. The format is in vivo. The settings on record: 10 kg/ha; scale 0 to 3 (complete kill).
For another series, the system named is Wheat. The series can be described thus: Herbicidal test, pre- and post-emergence. The settings on record: 10 kg/ha; scale 0 to 3 (complete kill). The format is in vivo.
The next series has as its system Maize. Description: Herbicidal test, pre- and post-emergence. It is filed as in vivo. The following applies: 10 kg/ha; scale 0 to 3 (complete kill).
Another series concerns Sugar beet. Description: Further herbicidal test, various rates. The settings on record: scale 0 to 5 (complete kill). The format is in vivo.
The next series deals with Kale. The series can be described thus: Further herbicidal test, various rates. It is filed as in vivo. The following applies: scale 0 to 5 (complete kill).
For the next series, the system named is Carrot. The series can be described thus: Further herbicidal test, various rates. The following applies: scale 0 to 5 (complete kill). It is filed as in vivo.
The subject of a further series is Pea. Description: Further herbicidal test, various rates. It is filed as in vivo. The settings on record: scale 0 to 5 (complete kill).
Another series deals with Onion. Description: Further herbicidal test, various rates. It is filed as in vivo. The following applies: scale 0 to 5 (complete kill).
The next series deals with Barley. Description: Further herbicidal test, various rates. The settings on record: scale 0 to 5 (complete kill). It is filed as in vivo.
The next series relates to Rice. Description: Further herbicidal test, various rates. It is filed as in vivo. The following applies: scale 0 to 5 (complete kill).
A further series has as its system Oat. Description: Further herbicidal test, various rates. It is filed as in vivo. The following applies: scale 0 to 5 (complete kill).
The mark [14] stands for this setting: 0.1% by weight, mustard/paper, 2 days.

With `Fc1nc(F)c(Cl)c(Nc2c(Cl)c(Cl)c(Cl)c(Cl)c2Cl)c1Cl` [Compound 9, 3,5-Dichloro-2,6-difluoro-4(pentachloroanilino)pyridine], in series [1], the “Amount of disease grading, disease A” value is reported as 3 (0 to 5). Also, the “Amount of disease grading, disease B” value in series [2] was 0 (61 to 100). The “Amount of disease grading, disease C” value in series [3] is given as 0 (61 to 100). The “Amount of disease grading, disease D” value with Uncinula necator (vine) was 3 (0 to 5). Besides, the “Amount of disease grading, disease E” value in [4] is 3 (0 to 5). Moreover, the “Mortality grading (kill)” value in series [5] is listed as 3 (3 represents over 90% kill); in the series on Aphis fabae, 0 (O represents less than 30% kill); in the series on Megoura viceae, 0 (O represents less than 30% kill); in series [6] it was 3 (3 represents over 90% kill); in series [7], 0 (O represents less than 30% kill); in series [9], 0 (O represents less than 30% kill). Further, the “Mortality grading (kill)” value in series [10] (in vivo) is listed as 3 (key: O represents less than 30% kill; 1 represents 30 - 49% kill; 2 represents 60 - 90% kill; 3 represents over 90% kill; C indicates a chemosterilant effect.; A indicates an antifeeding effect.); in series [11] (in vivo) it was 1 (key: O represents less than 30% kill; 1 represents 30 - 49% kill; 2 represents 60 - 90% kill; 3 represents over 90% kill; C indicates a chemosterilant effect.; A indicates an antifeeding effect.). For the same compound, the “Mortality grading (kill), contact test” value in series [8] is on record as 3 (3 represents over 90% kill).

`O=[N+]([O-])c1ccc(Nc2c(F)c(F)nc(F)c2Cl)c(C(F)(F)F)c1` [Compound 32, 3-Chloro-4(4-nitro-2-trifluoromethylanilino)-2,5,6-trifluoropyridine]: the “Amount of disease grading, disease A (Table 4)” value in [1] is 3 (0 to 5). The “Amount of disease grading, disease C (Table 4)” value in series [3] is 3 (0 to 5). For the same compound, the “Amount of disease grading, disease D (Table 4)” value in the series with Uncinula necator (vine) is given as 3 (0 to 5). In addition, the “Mortality grading (kill)” value in series [5] was 3 (3 represents over 90% kill); in series [12], 3 (3 represents over 90% kill); with Aphis fabae, 3 (3 represents over 90% kill); in the series on Megoura viceae, 0 (O represents less than 30% kill); in [6] it was 3 (3 represents over 90% kill); in series [7], 2 (2 represents 60 - 90% kill). In addition, the “Mortality grading (kill)” value is 3 (3 represents over 90% kill) in series [9], 2 (2 represents 60 - 90% kill) in series [10] (setting [14]) and 0 (O represents less than 30% kill) in series [11] (setting [14]). Moreover, the “% Kill of slugs” value in [13] was determined as 100%. Also, the “Damage to plants, post-emergence” value came out at 3 with Lettuce; 3 with Tomato; 0 in the series with Wheat; 0 in the series on Maize; 5 with Sugar beet (1 kg/hectare); 5 in the series on Sugar beet (5 kg/hectare). In addition, the “Damage to plants, post-emergence” value with Kale (1 kg/hectare) is recorded as 5; in the series with Kale (5 kg/hectare), 4; in the series with Carrot (1 kg/hectare), 2; in the series on Carrot (5 kg/hectare), 4; in the series with Pea (1 kg/hectare), 3; with Pea (5 kg/hectare) it was 2. Moreover, the “Damage to plants, post-emergence” value is reported as 1 with Onion (1 kg/hectare); 0 in the series on Onion (5 kg/hectare); 1 in the series on Barley (1 kg/hectare); 1 with Barley (5 kg/hectare); 0 in the series on Rice (1 kg/hectare); 0 in the series on Rice (5 kg/hectare). Further, the figures for the “Damage to plants, post-emergence” value with Oat (1 kg/hectare) and in the series with Oat (5 kg/hectare) were 1 and 0, respectively. The “Damage to plants, pre-emergence” value in the series with Lettuce is on record as 3; with Tomato, 3; in the series with Wheat it was 3; with Maize, 1; with Sugar beet (1 kg/hectare), 4; in the series with Sugar beet (5 kg/hectare), 5. Besides, the “Damage to plants, pre-emergence” value came out at 4 with Kale (1 kg/hectare); 5 with Kale (5 kg/hectare); 3 in the series on Carrot (1 kg/hectare); 5 with Carrot (5 kg/hectare); 3 in the series on Pea (1 kg/hectare); 5 in the series with Pea (5 kg/hectare). Further, the “Damage to plants, pre-emergence” value is given as 5 with Onion (5 kg/hectare); 4 in the series with Barley (1 kg/hectare); 4 with Barley (5 kg/hectare); 4 in the series on Rice (1 kg/hectare); 5 with Rice (5 kg/hectare); 3 with Oat (1 kg/hectare). The “Damage to plants, pre-emergence” value in the series with Oat (5 kg/hectare) is listed as 4.

With `N#Cc1cc([N+](=O)[O-])ccc1Nc1c(Cl)c(F)nc(F)c1Cl` [Compound 26, 4(2-Cyano-4-nitroanilino)-3,5-dichloro-2,6-difluoropyridine], the “Amount of disease grading, disease B (Table 4)” value in [2] is listed as 3 (0 to 5). In addition, the “Amount of disease grading, disease C (Table 4)” value in series [3] is recorded as 3 (0 to 5). The “Amount of disease grading, disease E (Table 4)” value in [4] is listed as 0 (61 to 100). For the same compound, the “Damage to plants, post-emergence” value in the series on Lettuce is on record as 3; with Tomato it was 0; with Maize, 0. Moreover, the “Damage to plants, pre-emergence” value in the series on Lettuce came to 3; with Tomato, 3; in the series with Wheat, 1; with Maize, 0.

Take `Fc1nc(F)c(Cl)c(Nc2c(Cl)cc(Cl)cc2Cl)c1Cl` [Compound 7, 3,5-Dichloro-2,6-difluoro-4(2,4,6-trichloroanilino)pyridine]: in series [1], the “Amount of disease grading, disease A” value was 2 (6 to 25). Also, the “Amount of disease grading, disease B” value in [2] was 0 (61 to 100). The “Amount of disease grading, disease C” value in series [3] is reported as 0 (61 to 100). The “Amount of disease grading, disease D” value with Uncinula necator (vine) is 0 (61 to 100). The “Amount of disease grading, disease E” value in series [4] is 0 (61 to 100). Besides, the “abnormal growth effects in larva of mosquitos” value in [6] (in vivo) is “abnormal growth effects”.
